Laboratory results from patent publication US20230123334A1, “AMINO LIPID COMPOUND, PREPARATION METHOD THEREFOR, AND APPLICATION THEREOF” (SHENZHEN SHENXIN BIOTECHNOLOGY CO., LTD., priority 2020, published 2023).

test system: HEK293 cells; test: Preliminary screening as mRNA vectors, EGFP mRNA transfection of HEK293 cells; assay type: cell-based; settings: EGFP mRNA 50 ng per well, 96-well plates; percentage of GFP fluorescent cells relative to total number of cells (Hoechst)
Procedure, shortened: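 Each well of HEK293 cells received 50 ng of EGFP mRNA. Efficiency was expressed as percent GFP-expressing cells over Hoechst-defined total cell number.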

Row | SMILES | Absolute mRNA transfection efficiency in HEK293 cells [%]
1 | CCCCCCCCCCCCSc1nc(NCCCN2CCOCC2)nc(SCCCCCC)n1 [Compound D8S6S12] | 11.1
2 | CCCCCCCCCCCCCCSc1nc(NCCCN2CCOCC2)nc(SCCCCCC)n1 [Compound D8S6S14] | 6.8
3 | CCCCCCCCCCCCCCCSc1nc(NCCCN2CCOCC2)nc(SCCCCCC)n1 [Compound D8S6S15] | 2.8
4 | CCCCCCCCCCCCCCCCSc1nc(NCCCN2CCOCC2)nc(SCCCCCC)n1 [Compound D8S6S16] | 43.1
5 | CCCCCCCCCCCCCCCCCCSc1nc(NCCCN2CCOCC2)nc(SCCCCCC)n1 [Compound D8S6S18] | 12.6
6 | CCCCCCCSc1nc(NCCCCCC)nc(NCCCN2CCOCC2)n1 [Compound D8S7N6] | 1.8
7 | CCCCCCCNc1nc(NCCCN2CCOCC2)nc(SCCCCCCC)n1 [Compound D8S7N7] | 1.4
8 | CCCCCCCCNc1nc(NCCCN2CCOCC2)nc(SCCCCCCC)n1 [Compound D8S7N8] | 1.8
9 | CCCCCCCCCNc1nc(NCCCN2CCOCC2)nc(SCCCCCCC)n1 [Compound D8S7N9] | 10.6
10 | CCCCCCCCCCCNc1nc(NCCCN2CCOCC2)nc(SCCCCCCC)n1 [Compound D8S7N11] | 20.1
11 | CCCCCCCCCCCCNc1nc(NCCCN2CCOCC2)nc(SCCCCCCC)n1 [Compound D8S7N12] | 2.3
12 | CCCCCCCCCCCCCNc1nc(NCCCN2CCOCC2)nc(SCCCCCCC)n1 [Compound D8S7N13] | 5.8
13 | CCCCCCCCCCCCCCCNc1nc(NCCCN2CCOCC2)nc(SCCCCCCC)n1 [Compound D8S7N15] | 2.8
14 | CCCCCCCCCCCCCCCCNc1nc(NCCCN2CCOCC2)nc(SCCCCCCC)n1 [Compound D8S7N16] | 1.2
15 | CCCCCCCCCCCCCCCCCCNc1nc(NCCCN2CCOCC2)nc(SCCCCCCC)n1 [Compound D8S7N18] | 3.0
16 | CCCCCCCSc1nc(NCCCN2CCOCC2)nc(SCCCCCCC)n1 [Compound D8S7S7] | 5.0
17 | CCCCCCCCSc1nc(NCCCN2CCOCC2)nc(SCCCCCCC)n1 [Compound D8S7S8] | 5.0
18 | CCCCCCCCCSc1nc(NCCCN2CCOCC2)nc(SCCCCCCC)n1 [Compound D8S7S9] | 18.6
19 | CCCCCCCCCCSc1nc(NCCCN2CCOCC2)nc(SCCCCCCC)n1 [Compound D8S7S10] | 11.4
20 | CCCCCCCCCCCSc1nc(NCCCN2CCOCC2)nc(SCCCCCCC)n1 [Compound D8S7S11] | 23.1
21 | CCCCCCCCCCCCSc1nc(NCCCN2CCOCC2)nc(SCCCCCCC)n1 [Compound D8S7S12] | 20.7
22 | CCCCCCCCCCCCCCSc1nc(NCCCN2CCOCC2)nc(SCCCCCCC)n1 [Compound D8S7S14] | 21.2
23 | CCCCCCCCCCCCCCCSc1nc(NCCCN2CCOCC2)nc(SCCCCCCC)n1 [Compound D8S7S15] | 25.2

Row | SMILES | Absolute mRNA transfection efficiency in HEK293 cells [%]
24 | CCCCCCCCCCCCCCCCSc1nc(NCCCN2CCOCC2)nc(SCCCCCCC)n1 [Compound D8S7S16] | 22.7
25 | CCCCCCCCCCCCCCCCCCSc1nc(NCCCN2CCOCC2)nc(SCCCCCCC)n1 [Compound D8S7S18] | 26.7
26 | CCCCCCCCSc1nc(NCCCCCC)nc(NCCCN2CCOCC2)n1 [Compound D8S8N6] | 1.0
27 | CCCCCCCCSc1nc(NCCCCCCC)nc(NCCCN2CCOCC2)n1 [Compound D8S8N7] | 0.1
28 | CCCCCCCCNc1nc(NCCCN2CCOCC2)nc(SCCCCCCCC)n1 [Compound D8S8N8] | 1.3
29 | CCCCCCCCCNc1nc(NCCCN2CCOCC2)nc(SCCCCCCCC)n1 [Compound D8S8N9] | 3.5
30 | CCCCCCCCCCCNc1nc(NCCCN2CCOCC2)nc(SCCCCCCCC)n1 [Compound D8S8N11] | 7.9
31 | CCCCCCCCCCCCNc1nc(NCCCN2CCOCC2)nc(SCCCCCCCC)n1 [Compound D8S8N12] | 3.8
32 | CCCCCCCCCCCCCNc1nc(NCCCN2CCOCC2)nc(SCCCCCCCC)n1 [Compound D8S8N13] | 1.5
33 | CCCCCCCCCCCCCCCNc1nc(NCCCN2CCOCC2)nc(SCCCCCCCC)n1 [Compound D8S8N15] | 4.6
34 | CCCCCCCCCCCCCCCCNc1nc(NCCCN2CCOCC2)nc(SCCCCCCCC)n1 [Compound D8S8N16] | 4.9
35 | CCCCCCCCCCCCCCCCCCNc1nc(NCCCN2CCOCC2)nc(SCCCCCCCC)n1 [Compound D8S8N18] | 1.2
36 | CCCCCCCCSc1nc(NCCCN2CCOCC2)nc(SCCCCCCCC)n1 [Compound D8S8S8] | 48.2
37 | CCCCCCCCCSc1nc(NCCCN2CCOCC2)nc(SCCCCCCCC)n1 [Compound D8S8S9] | 47.2
38 | CCCCCCCCCCSc1nc(NCCCN2CCOCC2)nc(SCCCCCCCC)n1 [Compound D8S8S10] | 40.9
39 | CCCCCCCCCCCSc1nc(NCCCN2CCOCC2)nc(SCCCCCCCC)n1 [Compound D8S8S11] | 22.2
40 | CCCCCCCCCCCCSc1nc(NCCCN2CCOCC2)nc(SCCCCCCCC)n1 [Compound D8S8S12] | 67.9
41 | CCCCCCCCCSc1nc(NCCCCCC)nc(NCCCN2CCOCC2)n1 [Compound D8S9N6] | 0.6
42 | CCCCCCCCCSc1nc(NCCCCCCC)nc(NCCCN2CCOCC2)n1 [Compound D8S9N7] | 2.2
43 | CCCCCCCCCSc1nc(NCCCCCCCC)nc(NCCCN2CCOCC2)n1 [Compound D8S9N8] | 5.7
44 | CCCCCCCCCNc1nc(NCCCN2CCOCC2)nc(SCCCCCCCCC)n1 [Compound D8S9N9] | 14.0
45 | CCCCCCCCCCCNc1nc(NCCCN2CCOCC2)nc(SCCCCCCCCC)n1 [Compound D8S9N11] | 23.5
46 | CCCCCCCCCCCCNc1nc(NCCCN2CCOCC2)nc(SCCCCCCCCC)n1 [Compound D8S9N12] | 11.2

Row | SMILES | Absolute mRNA transfection efficiency in HEK293 cells [%]
47 | CCCCCCCCCCCCCNc1nc(NCCCN2CCOCC2)nc(SCCCCCCCCC)n1 [Compound D8S9N13] | 12.6
48 | CCCCCCCCCCCCCCCNc1nc(NCCCN2CCOCC2)nc(SCCCCCCCCC)n1 [Compound D8S9N15] | 7.2
49 | CCCCCCCCCCCCCCCCNc1nc(NCCCN2CCOCC2)nc(SCCCCCCCCC)n1 [Compound D8S9N16] | 2.1
50 | CCCCCCCCCCCCCCCCCCNc1nc(NCCCN2CCOCC2)nc(SCCCCCCCCC)n1 [Compound D8S9N18] | 1.9
51 | CCCCCCCCCCSc1nc(NCCCCCC)nc(NCCCN2CCOCC2)n1 [Compound D8S10N6] | 0.2
52 | CCCCCCCCCCSc1nc(NCCCCCCC)nc(NCCCN2CCOCC2)n1 [Compound D8S10N7] | 0.6
53 | CCCCCCCCCCSc1nc(NCCCCCCCC)nc(NCCCN2CCOCC2)n1 [Compound D8S10N8] | 0.4
54 | CCCCCCCCCCSc1nc(NCCCCCCCCC)nc(NCCCN2CCOCC2)n1 [Compound D8S10N9] | 0.1
55 | CCCCCCCCCCCNc1nc(NCCCN2CCOCC2)nc(SCCCCCCCCCC)n1 [Compound D8S10N11] | 0.1
56 | CCCCCCCCCCCCNc1nc(NCCCN2CCOCC2)nc(SCCCCCCCCCC)n1 [Compound D8S10N12] | 0.1
57 | CCCCCCCCCCCCCNc1nc(NCCCN2CCOCC2)nc(SCCCCCCCCCC)n1 [Compound D8S10N13] | 0.2
58 | CCCCCCCCCCCCCCCNc1nc(NCCCN2CCOCC2)nc(SCCCCCCCCCC)n1 [Compound D8S10N15] | 0.2
59 | CCCCCCCCCCCCCCCCNc1nc(NCCCN2CCOCC2)nc(SCCCCCCCCCC)n1 [Compound D8S10N16] | 0.2
60 | CCCCCCCCCCCCCCCCCCNc1nc(NCCCN2CCOCC2)nc(SCCCCCCCCCC)n1 [Compound D8S10N18] | 0.1
61 | CCCCCCCCCCCSc1nc(NCCCCCC)nc(NCCCN2CCOCC2)n1 [Compound D8S11N6] | 2.8
62 | CCCCCCCCCCCSc1nc(NCCCCCCC)nc(NCCCN2CCOCC2)n1 [Compound D8S11N7] | 3.1
63 | CCCCCCCCCCCSc1nc(NCCCCCCCC)nc(NCCCN2CCOCC2)n1 [Compound D8S11N8] | 0.3
64 | CCCCCCCCCCCSc1nc(NCCCCCCCCC)nc(NCCCN2CCOCC2)n1 [Compound D8S11N9] | 1.6
65 | CCCCCCCCCCCNc1nc(NCCCN2CCOCC2)nc(SCCCCCCCCCCC)n1 [Compound D8S11N11] | 3.6
66 | CCCCCCCCCCCCNc1nc(NCCCN2CCOCC2)nc(SCCCCCCCCCCC)n1 [Compound D8S11N12] | 1.0
67 | CCCCCCCCCCCCCNc1nc(NCCCN2CCOCC2)nc(SCCCCCCCCCCC)n1 [Compound D8S11N13] | 3.1
68 | CCCCCCCCCCCCCCCNc1nc(NCCCN2CCOCC2)nc(SCCCCCCCCCCC)n1 [Compound D8S11N15] | 0.5
